Data reported in US12295963B2, “Treating pain associated with diabetic peripheral neuropathy” (MEDICON PHARMACEUTICALS, INC., priority 2021, dated 2025).
Read-outs that look alike come from different tables or passages of the source.

How the values were obtained:
[1] = Pharmacokinetics and biodistribution of PS and its metabolites after topical administration to hind paws; settings: for AUC0-24h of PS / Tmax of PS / T1/2 of PS / Cmax: 50 μl per hind paw; for Cmax: read-out: Cmax of PS, mean ± SEM
Procedure: PS 8% ointment was applied topically to each hind paw (50 μl per paw) with gentle rubbing. At 0.5, 1, 3, 5, 12, 18, and 24 h, mice (n=4-5 mice/time point) were euthanized with CO2 inhalation. Blood was drawn immediately after death. Tissues, including paw skin, paw muscle, leg muscle, the sciatic nerve and lumbar DRG bilaterally were dissected quickly, immediately frozen in liquid nitrogen and stored at −80° C. until analyzed.
Following addition of acetonitrile (twice the volume of the homogenate), the mixture was sonicated for 10 min, centrifuged at 13,200 rpm for 15 min, and analyzed by HPLC, as reported (Wen et al., 2019).
Since the metabolism and PK/biodistribution of PS vary depending on its route of administration, we studied both in normal mice in which PS was administered topically to their hind paws, with particular attention to the sciatic nerve and the dorsal root ganglia (DRG) that are affected in DPN.

[2] = tested on: mechanical allodynia in STZ-induced DPN rats; experiment: Prevention of neuropathic pain in STZ-induced rat model of DPN, paw withdrawal threshold (von Frey filaments); format: in vivo; settings: prevention protocol; for von Frey, gm mean ± SEM (PWT): PS 8% hydrogel or sulindac 0.7% hydrogel topical 3 times a day from day -2 to day 28, lidocaine 5% cream once 30 min before PWT, PWT on day 28; for effect on PWT compared to vehicle (prevention study): day 28, result in words
From the text: DPN was induced via chemically-induced increases in blood glucose in rats, using streptozotocin (STZ).
The animal model corresponds to that used for Example 1, but using a prevention protocol. As in Example 1, the outcome measure, determining the effect of the treatment on the prevention of mechanical allodynia, was the PWT test, using von Frey filaments. The measurements were taken at day −3, before treatment or induction of neuropathic pain associated with DPN, and again at the end of the study period (day 28).
The rats were randomised into treatment groups as follows, all having an average body weight of about 225 g. • 1. Group 1: naïve rats (n=6) • 2. Group 2: STZ only (n=8) • 3. Group 3: STZ plus vehicle (n=8) • 4. Group 4: STZ plus PS 8% (n=8) • 5. […] Group 6: STZ plus lidocaine cream 5% (n=8)
Each treatment group was subjected to a PWT assessment at day −3 in order to determine the baseline of mechanical allodynia. […] For those rats in the lidocaine treatment group, lidocaine cream was applied only once to both hind paws of the rats 30 min before the final PWT measurement on day 28. On day 0, neuropathic pain associated with DPN was induced with the administration of STZ, and the blood glucose was checked on day 3. Four weeks after the administration of STZ, to provide sufficient time to allow the neuropathic pain associated with DPN (manifested as mechanical allodynia) to develop (see the STZ only group in FIG. 5), the rats were subjected to the paw withdrawal threshold test.

[3] = tested on: mechanical allodynia in STZ-induced DPN rats; experiment: Treatment of neuropathic pain in STZ-induced rat model of DPN, paw withdrawal threshold (von Frey filaments); format: in vivo, Sprague-Dawley rats; settings: for effect on PWT compared to vehicle (treatment study): established DPN, result in words
Procedure: DPN was induced via chemically-induced increases in blood glucose in rats, using streptozotocin (STZ). This is a well-established model for DPN (see Morrow, Current Protocols in Neuroscience (2004); 29(1): 1-11), in which the STZ, an antibiotic extract from Streptomyces acromogenes, selectively damages the β cells of the pancreas.
Sprague-Dawley rats were fasted for 4-6 hours before being injected intraperitoneally with 45 mg/kg STZ. This was performed for all experimental groups, except the naïve group. In order to prevent hypoglycaemic death, rats received 10% sucrose water as the sole water source for the first 48 hours after injection. In order to ensure only those rats considered diabetic (i.e., having non-fasting plasma glucose levels of >250 mg/dL) were included in the study, blood glucose was measured at 72 hours after the STZ injection.
This delay between STZ injection and treatment allows the establishment of chronic pain (allodynia) associated with peripheral and central sensitisation. PS (as an 8% hydrogel) or vehicle control were administered topically to both hind paws of the rats 3 times a day for 3 weeks starting at week 4 after STZ injection. […] 5% lidocaine cream (a positive control) was applied only once to both hind paws of the rats 30 minutes before measurement of PWT.
The rats were split into 8 study groups, with those in the experimental groups (1-4) having an average body weight of about 225 g, and those in the control groups (5-8) having an average body weight of about 335 g, as follows: • 1. Group 1: naïve rats (n=5) • 2. Group 2: STZ only (n=6) • 3. Group 3: STZ plus vehicle (n=6) • 4. Group 4: STZ plus PS (8% hydrogel) (n=7) • 5. Group 5: STZ plus oral vehicle (n=8) • 6. […] Group 7: STZ plus 5% lidocaine cream (n=8) • 8.
In order to determine the outcome of the treatment, mechanical allodynia was measured using the well-established method of von Frey filaments. In particular, a simplified up-down method for estimating paw withdrawal threshold (PWT) using von Frey filaments was used (as described in Bonin et al., Molecular Pain (2014); 10(26):1-10)). The results of the PWT test are expressed as force applied (gm).

[4] = treatment protocol from week 4, sulindac 0.7% hydrogel topical 3 times a day for 1 week (PWT week 5), lidocaine 5% cream once 30 min before PWT, pregabalin 10 mg/kg oral once 1 h before PWT
[5] = dorsal root ganglia (DRG), normal mice, PS 8% ointment topical
[6] = leg muscle, normal mice, PS 8% ointment topical
[7] = paw muscle, normal mice, PS 8% ointment topical
[8] = paw skin, normal mice, PS 8% ointment topical
[9] = sciatic nerve (SN), normal mice, PS 8% ointment topical

Molecule: CC1=C(CC(=O)O)c2cc(F)ccc2/C1=C\c1ccc(S(C)(=O)=O)cc1 [sulindac sulfone]
- detection as metabolite of PS ([1]; mouse tissues and blood after PS 8% ointment topical, HPLC, limit of quantitation 0.05 μM): detected

Molecule: CCN(CC)CC(=O)Nc1c(C)cccc1C [lidocaine]
- von Frey, gm mean ± SEM (PWT) [2]: 34.3 ± 1.6 gm
- effect on PWT compared to vehicle (prevention study) [2]: significantly increased the PWT compared to vehicle
- effect on PWT compared to vehicle (treatment study) [3]: significant increases in PWT compared to vehicle
- PWT, gm Mean ± SEM [3, 4]: 26.0 ± 1.8 gm

Molecule: CC1=C(CC(=O)O)c2cc(F)ccc2/C1=C\c1ccc([S+](C)[O-])cc1 (stereo not drawn) [sulindac]
- von Frey, gm mean ± SEM (PWT) [2]: 27.7 ± 1.4 gm
- effect on PWT compared to vehicle (prevention study) [2]: no significant effect on PWT compared to the vehicle
- effect on PWT compared to vehicle (treatment study) [3]: failed to suppress the reduced PWT caused by STZ
- PWT, gm Mean ± SEM [3, 4]: 23.2 ± 2.6 gm

Molecule: CC(C)C[C@H](CN)CC(=O)O [pregabalin]
- effect on PWT compared to vehicle (treatment study) [3]: significant increases in PWT compared to vehicle

Molecule: phosphosulindac [PS]
- PS in the systemic circulation ([1]; blood, normal mice, PS 8% ointment topical, limit of quantitation 0.1 μM): no PS was detected
- AUC0-24h of PS [1, 5]: 4.5 µM·h
- Tmax of PS [1, 5]: 18 h
- AUC0-24h of PS [1, 6]: 171.6 µM·h
- T1/2 of PS [1, 6]: 20.6 h
- Tmax of PS [1, 6]: 0.5 h
- Tmax of PS in all tissues with the exception of DRG ([1]; normal mice, PS 8% ointment topical): 0.5 h
- AUC0-24h of PS [1, 7]: 411.2 µM·h
- T1/2 of PS [1, 7]: 11.4 h
- Tmax of PS [1, 7]: 0.5 h
- AUC0-24h of PS [1, 8]: 1,609.8 μM · h
- T1/2 of PS [1, 8]: 16.1 h
- Tmax of PS [1, 8]: 0.5 h
- t1/2 of PS in the skin and the muscles ([1]; range over paw skin, paw muscle, leg muscle, normal mice, PS 8% ointment topical): 11.4 to 20.6 h
- Cmax [1, 5]: 0.3 ± 0.1 µM
- Cmax [1, 6]: 35 ± 3.6 µM
- Cmax [1, 7]: 102 ± 4.6 µM
- Cmax [1, 8]: 195 ± 5.3 µM
- Cmax [1, 9]: 0.9 ± 0.1 µM
- AUC0-24h of PS [1, 9]: 12.0 µM·h
- T1/2 of PS [1, 9]: 57.4 h
- Tmax of PS [1, 9]: 0.5 h
- von Frey, gm mean ± SEM (PWT) [2]: 33.1 ± 1.6 gm
- effect on PWT compared to vehicle (prevention study) [2]: significant increase in PWT compared to vehicle
- effect on PWT compared to vehicle (treatment study) [3]: significant increase in PWT compared to vehicle and STZ
- PWT, gm Mean ± SEM ([3]; treatment protocol, PS 8% hydrogel topically to both hind paws 3 times a day for 3 weeks from week 4 after STZ, PWT at week 7, 30 min after last treatment): 22.5 ± 2.20 gm
